Experimental data reported in patent publication US12466812B2, “Pyridinyltriazine derivative having protein kinase inhibitory activity, and pharmaceutical composition for preventing, ameliorating, or treating cancer comprising same” (KOREA INSTITUTE OF SCIENCE AND TECHNOLOGY, priority 2019, dated 2025).

Legend:
[1] = test system: UMUC3, bladder cancer cell line overexpressing FGFR1 (xenograft); test: In-vivo efficacy in animal model transplanted with bladder cancer cell line; settings: UMUC3 xenograft in BALB/C nude mice, oral 20 mpk once a day, compared to control drug BGJ398
Text: Specifically, 6-7 week old BALB/C nude mice xenografted with UMUC3, which was a bladder cancer cell line overexpressing FGFR1, were used as an animal model. BGJ398 (manufactured by Novartis), a known FGFR inhibitor, was used as a control drug. A mixed solution (pH=4) of 5% N-methylpyrrolidinone (NMP), 6% Solutol, 20% polyethylene glycol (PEG400), and 69′% distilled water was used as a vehicle. At this time, the drug was orally administered at a concentration of 20 mpk (mg/kg) once a day.

FGFR2 mutant (V564F) = FGFR2 mutant (V564F) (Homo sapiens, UniProt P21802, V564F); test: Pan-FGFR mutant enzymatic activity; assay type: biochemical; settings: mutant enzyme
FGFR2 mutant (V564F), sequence (P21802 22-821 V564F): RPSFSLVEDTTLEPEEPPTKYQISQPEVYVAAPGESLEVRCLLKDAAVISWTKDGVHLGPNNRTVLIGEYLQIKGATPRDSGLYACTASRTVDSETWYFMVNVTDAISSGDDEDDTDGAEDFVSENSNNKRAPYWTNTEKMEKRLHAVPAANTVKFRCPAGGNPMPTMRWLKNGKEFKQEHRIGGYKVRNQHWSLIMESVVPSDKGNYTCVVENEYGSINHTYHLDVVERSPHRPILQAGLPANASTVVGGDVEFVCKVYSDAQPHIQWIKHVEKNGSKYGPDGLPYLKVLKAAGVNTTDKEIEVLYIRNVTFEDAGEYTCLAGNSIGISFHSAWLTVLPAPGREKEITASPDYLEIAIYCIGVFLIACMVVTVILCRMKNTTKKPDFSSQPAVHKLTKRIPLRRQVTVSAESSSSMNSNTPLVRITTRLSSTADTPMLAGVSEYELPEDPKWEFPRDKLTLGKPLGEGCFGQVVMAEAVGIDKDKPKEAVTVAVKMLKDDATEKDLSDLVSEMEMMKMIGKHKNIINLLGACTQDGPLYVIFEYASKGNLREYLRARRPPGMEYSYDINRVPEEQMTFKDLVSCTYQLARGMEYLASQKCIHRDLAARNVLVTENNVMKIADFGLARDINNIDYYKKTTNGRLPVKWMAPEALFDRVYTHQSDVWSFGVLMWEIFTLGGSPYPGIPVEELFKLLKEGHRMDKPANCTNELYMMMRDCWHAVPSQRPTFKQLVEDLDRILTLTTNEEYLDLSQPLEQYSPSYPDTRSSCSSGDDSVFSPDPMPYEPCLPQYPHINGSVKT
Experimental: (§1) The inhibitory activity against pan-FGFR mutants of the compounds synthesized in Examples 1, 8, 13, 22, and 24 was measured, the inhibitory activity on each of enzymatic activity and cellular activity was evaluated, and the results are shown in Tables 3 and 4 below.

FGFR3 mutant (K650M) = FGFR3 mutant (K650M) (Homo sapiens, UniProt P22607, K650M); test: Pan-FGFR mutant enzymatic activity; assay type: biochemical; settings: mutant enzyme
FGFR3 mutant (K650M), sequence (P22607 23-806 K650M): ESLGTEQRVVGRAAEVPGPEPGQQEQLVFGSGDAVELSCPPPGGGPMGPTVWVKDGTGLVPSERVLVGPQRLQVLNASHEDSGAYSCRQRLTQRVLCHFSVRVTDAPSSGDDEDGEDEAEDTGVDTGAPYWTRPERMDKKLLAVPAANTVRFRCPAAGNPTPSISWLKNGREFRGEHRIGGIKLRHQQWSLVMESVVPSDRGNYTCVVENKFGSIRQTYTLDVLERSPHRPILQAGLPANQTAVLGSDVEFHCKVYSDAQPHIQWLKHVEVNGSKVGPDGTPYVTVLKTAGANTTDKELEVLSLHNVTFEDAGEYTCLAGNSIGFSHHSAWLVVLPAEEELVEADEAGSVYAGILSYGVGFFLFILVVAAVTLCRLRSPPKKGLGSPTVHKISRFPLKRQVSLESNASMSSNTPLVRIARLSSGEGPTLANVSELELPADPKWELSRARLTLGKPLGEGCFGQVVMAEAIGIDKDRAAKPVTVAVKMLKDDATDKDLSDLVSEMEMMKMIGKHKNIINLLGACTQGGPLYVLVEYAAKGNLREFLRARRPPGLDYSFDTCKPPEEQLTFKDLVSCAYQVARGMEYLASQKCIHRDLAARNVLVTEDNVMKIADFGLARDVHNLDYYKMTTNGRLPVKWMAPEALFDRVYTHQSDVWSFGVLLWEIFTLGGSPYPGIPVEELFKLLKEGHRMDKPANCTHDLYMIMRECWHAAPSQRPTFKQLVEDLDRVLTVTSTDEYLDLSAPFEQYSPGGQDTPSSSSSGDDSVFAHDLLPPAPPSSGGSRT
Experimental: as §1

FGFR3 mutant (K650E) = FGFR3 mutant (K650E) (Homo sapiens, UniProt P22607, K650E); test: Pan-FGFR mutant enzymatic activity; assay type: biochemical; settings: mutant enzyme
FGFR3 mutant (K650E), sequence (P22607 23-806 K650E): as the sequence (P22607 23-806 K650M) above, with M628E counted along it
Experimental: as §1

FGFR3 mutant (V555M) = FGFR3 mutant (V555M) (Homo sapiens, UniProt P22607, V555M); test: Pan-FGFR mutant enzymatic activity; assay type: biochemical; settings: mutant enzyme
FGFR3 mutant (V555M), sequence (P22607 23-806 V555M): as the sequence (P22607 23-806 K650M) above, with V533M, M628K counted along it
Experimental: as §1

FGFR2 mutant (N549H) = FGFR2 mutant (N549H) (Homo sapiens, UniProt P21802, N549H); test: Pan-FGFR mutant enzymatic activity; assay type: biochemical; settings: mutant enzyme
FGFR2 mutant (N549H), sequence (P21802 22-821 N549H): as the sequence (P21802 22-821 V564F) above, with N528H, F543V counted along it
Experimental: as §1

CDK6 = CDK6 (Homo sapiens, UniProt Q00534); test: Kinase panel biochemical assay; settings: single concentration of 1 μM; panel of 369 kinases; read-out: kinase activity inhibited (%), CDK6
CDK6, sequence (Q00534 whole entry): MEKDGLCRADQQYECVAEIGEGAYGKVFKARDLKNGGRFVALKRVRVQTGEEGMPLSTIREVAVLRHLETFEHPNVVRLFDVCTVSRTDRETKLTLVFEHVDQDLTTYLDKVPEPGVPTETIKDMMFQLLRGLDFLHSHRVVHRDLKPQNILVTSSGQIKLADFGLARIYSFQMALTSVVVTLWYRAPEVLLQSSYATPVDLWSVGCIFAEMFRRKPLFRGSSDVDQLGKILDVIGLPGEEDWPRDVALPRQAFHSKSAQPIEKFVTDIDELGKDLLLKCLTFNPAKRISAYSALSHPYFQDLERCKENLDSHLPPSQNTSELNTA
CDK6, sequence (P30281 whole entry partner): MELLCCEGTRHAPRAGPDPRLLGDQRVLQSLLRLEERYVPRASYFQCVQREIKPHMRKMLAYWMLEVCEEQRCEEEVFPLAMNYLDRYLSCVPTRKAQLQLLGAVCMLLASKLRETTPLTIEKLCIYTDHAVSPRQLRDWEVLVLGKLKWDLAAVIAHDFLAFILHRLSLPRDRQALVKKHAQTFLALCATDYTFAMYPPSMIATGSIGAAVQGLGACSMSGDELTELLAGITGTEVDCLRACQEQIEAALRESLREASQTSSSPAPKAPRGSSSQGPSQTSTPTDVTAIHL
Experimental: In order to measure the inhibitory activity (%) against protein kinases of the compounds of the present invention, biochemical assays were performed on a full kinase panel composed of 369 kinases.

[2] = test system: KMS-11 (myeloma cell line); test: Pan-FGFR mutant cellular activity; assay type: cell-based; settings: Homo sapiens, Table 4
Experimental: as §1

[3] = test system: J82 (bladder cancer cell line); test: Pan-FGFR mutant cellular activity; assay type: cell-based; settings: Table 4
Experimental: as §1

[4] = test system: UMUC3 (bladder cancer cell line); test: Pan-FGFR mutant cellular activity; assay type: cell-based; settings: Homo sapiens, Table 4
Experimental: as §1

AN3-CA = test: Pan-FGFR mutant cellular activity; assay type: cell-based; settings: Homo sapiens, mutant cell, Table 4, read-out: GI50, AN3-CA (breast cancer cell line)
Experimental: as §1

With `CCN1CCN(c2ccc(Nc3ncnc(-c4cccnc4Nc4c(Cl)c(OC)cc(OC)c4Cl)n3)cc2)CC1` [Example 1] the “tumor volume reduction effect” value [1] was “excellent tumor volume reduction effect”, the IC50 (FGFR2 mutant (V564F)) was 0.1 to 1 µM and the IC50 (FGFR3 mutant (K650M)) was < 0.1 µM. For the same compound, the IC50 (FGFR3 mutant (K650E)) was < 0.1 µM, the IC50 (FGFR3 mutant (V555M)) was 0.1 to 1 µM and the IC50 (FGFR2 mutant (N549H)) was < 0.1 µM. For the same compound, the inhibition at 1 µM (CDK6) was ≥ 90%, the GI50 [2] was < 1 µM and the GI50 [3] was 1 to 10 µM. For the same compound, the GI50 [4] was 1 to 10 µM and the GI50 (AN3-CA) was < 1 µM.
